Measured values taken from US20100160442A1, “FORMULATIONS FOR CANCER TREATMENT” (priority 2006, published 2010).
≈ marks a conversion by molar mass, not a printed value. Like-named read-outs stand apart in the source and are kept apart here.

Test: Equilibrium solubility of 4-iodo-3-nitrobenzamide, overnight at 25° C., measured by HPLC
Type: physicochemical
Conditions: for solubility: thermodynamic from solid
Protocol: Excess 4-iodo-3-nitrobenzamide (“BA”) was equilibrated overnight (>16 hr) at 25° C. in purified water, 0.01M HCl (pH2), 0.01M NaOH ([…]), and 0.9% NaCl. Following dilution, the solubility of the drug was measured by HPLC.
Excess 4-iodo-3-nitrobenzamide was equilibrated overnight (>16 hr) at 25° C. in solutions of purified water containing various concentrations of cyclodextrins including hydroxypropyl-β-cyclodextrin (Kleptose® from Roquette) (HPBCD), sulfobutyl ether-β-cyclodextrin (Captisol® from Cyclex) (SBEBCD), and Hyroxypropyl-γ-cyclodextrin (Cavamax W8® from Wacker) (HPGCD). Following dilution, the solubility of the drug was measured by HPLC.
Excess 4-iodo-3-nitrobenzamide was equilibrated overnight (>16 hr) at 25° C. in purified water containing various concentrations of the surfactants: polyethylene sorbitan monooleate (Polysorbate 80), polyoxyethylene sorbitan monolaurate (Polysorbate 20), Cremophor EL (BASF), Cremophor RH40 (BASF), Poloxamer 118, and Solutol HS-15 (BASF). Following dilution, the solubility of the drug was measured by HPLC.
Excess 4-iodo-3-nitrobenzamide was equilibrated overnight (>16 hr) at 25° C. in solutions of purified water containing various co-solvents including ethanol, glycofurol, glycerin formal, benzyl alcohol, N,N, dimethylacetamide (DMA), polyethylene glycol (PEG) 400, and propylene glycol. Following dilution, the solubility of the drug was measured by HPLC.
Excess 4-iodo-3-nitrobenzamide was equilibrated overnight (>16 hr) at 25° C. in solutions in purified water containing mixtures of solubilizers. Following dilution, the solubility of the drug was measured by HPLC.

NC(=O)c1ccc(I)c([N+](=O)[O-])c1 [BA, 4-iodo-3-nitrobenzamide]
solubility (0.01 M HCl, 25 °C, pH 2, simulated gastric fluid, 0.01 M HCl (pH 2), 25° C., read-out: Solubility): 179 µg/mL (≈ 0.613 mM) | solubility (0.01 M NaOH, 25 °C, pH 13, aqueous buffer, 0.01M NaOH (pH 13), 25° C., read-out: Solubility): 181 µg/mL (≈ 0.62 mM) | solubility (0.9% NaCl, 25 °C, saline or isotonic, 0.9% NaCl, 25° C., read-out: Solubility): 164 µg/mL (≈ 0.562 mM) | solubility (5% DMA (N,N-dimethylacetamide) in purified water, 25 °C, aqueous with cosolvent or surfactant or cyclodextrin, DMA 5%, 25° C., read-out: Solubility): 1390 µg/mL (≈ 4.76 mM) | Enhancement (5% DMA/5% EtOH/40% PEG 400): 44.0 | solubility (5% DMA/5% EtOH/40% PEG 400 in purified water, 25 °C, aqueous with cosolvent or surfactant or cyclodextrin, 5% DMA/5% EtOH/40% PEG 400, 25° C., read-out: Solubility): 8010 µg/mL (≈ 27.4 mM) | Enhancement (5% DMA/25% Solutol HS-15): 45.7 | solubility (5% DMA/25% Solutol HS-15 in purified water, 25 °C, aqueous with cosolvent or surfactant or cyclodextrin, 5% DMA/25% Solutol HS-15, 25° C., read-out: Solubility): 8320 µg/mL (≈ 28.5 mM) | Enhancement (5% DMA/40% PEG 400): 33.2 | solubility (5% DMA/40% PEG 400 in purified water, 25 °C, aqueous with cosolvent or surfactant or cyclodextrin, 5% DMA/40% PEG 400, 25° C., read-out: Solubility): 6050 µg/mL (≈ 20.7 mM) | Enhancement (5% Polysorbate 20/5% ETOH): 12.1 | solubility (5% Polysorbate 20/5% ethanol in purified water, 25 °C, aqueous with cosolvent or surfactant or cyclodextrin, 5% Polysorbate 20/5% ETOH, 25° C., read-out: Solubility): 2210 µg/mL (≈ 7.57 mM) | Enhancement (5% Polysorbate 20/5% glycofurol): 11.0 | solubility (5% Polysorbate 20/5% glycofurol in purified water, 25 °C, aqueous with cosolvent or surfactant or cyclodextrin, 5% Polysorbate 20/5% glycofurol, 25° C., read-out: Solubility): 2000 µg/mL (≈ 6.85 mM) | Enhancement (5% Polysorbate 80/5% ETOH): 12.3 | solubility (5% Polysorbate 80/5% ethanol in purified water, 25 °C, aqueous with cosolvent or surfactant or cyclodextrin, 5% Polysorbate 80/5% ETOH, 25° C., read-out: Solubility): 2230 µg/mL (≈ 7.64 mM) | Enhancement (5% Polysorbate 80/5% glycofurol): 13.1 | solubility (5% Polysorbate 80/5% glycofurol in purified water, 25 °C, aqueous with cosolvent or surfactant or cyclodextrin, 5% Polysorbate 80/5% glycofurol, 25° C., read-out: Solubility): 2390 µg/mL (≈ 8.18 mM) | Enhancement (5% Polysorbate 80/10% EtOH/40% PEG 400): 6.7 | solubility (5% glucose (5GW), 25 °C, saline or isotonic, 5% Glucose (5GW), 25° C., read-out: Solubility): 173 µg/mL (≈ 0.592 mM) | solubility (10% Cremophor EL in purified water, 25 °C, aqueous with cosolvent or surfactant or cyclodextrin, Cremophor EL 10%, 25° C., read-out: Solubility): 3500 µg/mL (≈ 12 mM) | solubility (10% Cremophor RH40 in purified water, 25 °C, aqueous with cosolvent or surfactant or cyclodextrin, Cremophor RH40 10%, 25° C., read-out: Solubility): 3370 µg/mL (≈ 11.5 mM) | Enhancement (10% EtOH/10% Polysorbate 80): 11.5 | Enhancement (10% EtOH/40% PEG 400): 18.8 | Enhancement (10% EtOH/40% PEG 400,/5% Benzyl Alcohol): 17.1 | solubility (10% HPBCD in purified water, 25 °C, aqueous with cosolvent or surfactant or cyclodextrin, HPBCD 10% in purified water, 25° C., read-out: Solubility): 4860 µg/mL (≈ 16.6 mM) | solubility (10% Poloxamer 118 in purified water, 25 °C, aqueous with cosolvent or surfactant or cyclodextrin, Poloxamer 118 10%, 25° C., read-out: Solubility): 430 µg/mL (≈ 1.47 mM) | solubility (10% Polysorbate 20 in purified water, 25 °C, aqueous with cosolvent or surfactant or cyclodextrin, Polysorbate 20 10%, 25° C., read-out: Solubility): 3660 µg/mL (≈ 12.5 mM) | solubility (10% Polysorbate 80 in purified water, 25 °C, aqueous with cosolvent or surfactant or cyclodextrin, Polysorbate 80 10%, 25° C., read-out: Solubility): 3120 µg/mL (≈ 10.7 mM) | Enhancement (10% glycofurol, 40% PEG 400): 33.6 | solubility (20% HPBCD in purified water, 25 °C, aqueous with cosolvent or surfactant or cyclodextrin, HPBCD 20% in purified water, 25° C., read-out: Solubility): 9960 µg/mL (≈ 34.1 mM) | solubility (25% HPBCD in purified water, 25 °C, aqueous with cosolvent or surfactant or cyclodextrin, HPBCD 25% in purified water, 25° C., read-out: Solubility): 11500 µg/mL (≈ 39.3 mM) | solubility (25% HPGCD in purified water, 25 °C, aqueous with cosolvent or surfactant or cyclodextrin, HPGCD 25% in purified water, 25° C., read-out: Solubility): 272 µg/mL (≈ 0.931 mM) | solubility (25% SBEBCD in purified water, 25 °C, aqueous with cosolvent or surfactant or cyclodextrin, SBEBCD 25% in purified water, 25° C., read-out: Solubility): 11000 µg/mL (≈ 37.8 mM) | solubility (25% Solutol HS 15 in purified water, 25 °C, aqueous with cosolvent or surfactant or cyclodextrin, Solutol HS 15 25%, 25° C., read-out: Solubility): 6550 µg/mL (≈ 22.4 mM) | solubility (30% Solutol HS 15 in purified water, 25 °C, aqueous with cosolvent or surfactant or cyclodextrin, Solutol HS 15 30%, 25° C., read-out: Solubility): 7460 µg/mL (≈ 25.5 mM) | solubility (40% HPBCD in purified water, 25 °C, aqueous with cosolvent or surfactant or cyclodextrin, HPBCD 40% in purified water, 25° C., read-out: Solubility): 12800 µg/mL (≈ 43.7 mM) | solubility (50% PEG 400 in purified water, 25 °C, aqueous with cosolvent or surfactant or cyclodextrin, PEG 400 50%, 25° C., read-out: Solubility): 7660 µg/mL (≈ 26.2 mM) | Enhancement (50% Polysorbate 20/50% EtOH): 89.6 | solubility (50% Polysorbate 20/50% EtOH, 25 °C, organic solvent or mixture, 50% Polysorbate 20/50% EtOH, 25° C., read-out: Solubility): 16300 µg/mL (≈ 55.9 mM) | Enhancement (50% Polysorbate 80/50% EtOH): 102.2 | solubility (50% Polysorbate 80/50% EtOH, 25 °C, organic solvent or mixture, 50% Polysorbate 80/50% EtOH, 25° C., read-out: Solubility): 18600 µg/mL (≈ 63.7 mM) | solubility (50% ethanol in purified water, 25 °C, aqueous with cosolvent or surfactant or cyclodextrin, Ethanol 50%, 25° C., read-out: Solubility): 5720 µg/mL (≈ 19.6 mM) | solubility (50% glycerin formal in purified water, 25 °C, aqueous with cosolvent or surfactant or cyclodextrin, Glycerin Formal 50%, 25° C., read-out: Solubility): 3450 µg/mL (≈ 11.8 mM) | solubility (50% glycofurol in purified water, 25 °C, aqueous with cosolvent or surfactant or cyclodextrin, Glycofurol 50%, 25° C., read-out: Solubility): 9850 µg/mL (≈ 33.7 mM) | solubility (50% propylene glycol in purified water, 25 °C, aqueous with cosolvent or surfactant or cyclodextrin, Propylene glycol 50%, 25° C., read-out: Solubility): 2240 µg/mL (≈ 7.67 mM) | solubility (100% DMA (N,N-dimethylacetamide), 25 °C, organic solvent or mixture, DMA 100%, 25° C., read-out: Solubility): 71500 µg/mL (≈ 245 mM) | solubility (100% Polysorbate 20, 25 °C, organic solvent or mixture, Polysorbate 20 100%, 25° C., read-out: Solubility): 10800 µg/mL (≈ 37.2 mM) | solubility (100% Polysorbate 80, 25 °C, organic solvent or mixture, Polysorbate 80 100%, 25° C., read-out: Solubility): 16900 µg/mL (≈ 57.8 mM) | solubility (100% benzyl alcohol, 25 °C, organic solvent or mixture, Benzyl alcohol 100%, 25° C., read-out: Solubility): 15500 µg/mL (≈ 53.1 mM) | solubility (100% ethanol, 25 °C, organic solvent or mixture, Ethanol 100%, 25° C., read-out: Solubility): 14100 µg/mL (≈ 48.1 mM) | solubility (100% glycerin formal, 25 °C, organic solvent or mixture, Glycerin Formal 100%, 25° C., read-out: Solubility): 15100 µg/mL (≈ 51.8 mM) | solubility (100% glycofurol, 25 °C, organic solvent or mixture, Glycofurol 100%, 25° C., read-out: Solubility): 15000 µg/mL (≈ 51.3 mM) | Enhancement (Benzyl alcohol 100%): 85.3 | Enhancement (Cremophor EL 10%): 19.2 | Enhancement (Cremophor RH40 10%): 18.5 | Enhancement (DMA 5%): 7.6 | Enhancement (DMA 100%): 392.6 | Enhancement (Ethanol 50%): 31.4 | Enhancement (Ethanol 100%): 77.2 | Enhancement (Glycerin Formal 50%): 19.0 | Enhancement (Glycerin Formal 100%): 83.2 | Enhancement (Glycofurol 50%): 54.1 | Enhancement (Glycofurol 100%): 82.3 | Enhancement (HPBCD 10%, vs no solubilizer): 26.7 | Enhancement (HPBCD 20%, vs no solubilizer): 54.8 | Enhancement (HPBCD 25%, vs no solubilizer): 63.0 | Enhancement (HPBCD 40%, vs no solubilizer): 70.2 | Enhancement (HPGCD 25%, vs no solubilizer): 1.5 | Enhancement (PEG 400 50%): 42.1 | Enhancement (Poloxamer 118 10%): 2.4 | Enhancement (Polysorbate 20 10%): 20.1 | Enhancement (Polysorbate 20 100%): 59.6 | Enhancement (Polysorbate 80 10%): 17.2 | Enhancement (Polysorbate 80 100%): 92.8 | Enhancement (Propylene glycol 50%): 12.3 | Enhancement (SBEBCD 25%, vs no solubilizer): 60.6 | Enhancement (Solubilizer None 0%): 1.0 | Enhancement (Solutol HS 15 25%): 36.0 | Enhancement (Solutol HS 15 30%): 41.0 | solubility (purified water containing mixtures of solubilizers, 25 °C, aqueous with cosolvent or surfactant or cyclodextrin, 5% Polysorbate 80/10% EtOH/40% PEG 400, 25° C., read-out: Solubility): 1230 µg/mL (≈ 4.21 mM) | solubility (purified water containing mixtures of solubilizers, 25 °C, aqueous with cosolvent or surfactant or cyclodextrin, 10% EtOH/10% Polysorbate 80, 25° C., read-out: Solubility): 2300 µg/mL (≈ 7.88 mM) | solubility (purified water containing mixtures of solubilizers, 25 °C, aqueous with cosolvent or surfactant or cyclodextrin, 10% EtOH/40% PEG 400, 25° C., read-out: Solubility): 3420 µg/mL (≈ 11.7 mM) | solubility (purified water containing mixtures of solubilizers, 25 °C, aqueous with cosolvent or surfactant or cyclodextrin, 10% EtOH/40% PEG 400,/5% Benzyl Alcohol, 25° C., read-out: Solubility): 3110 µg/mL (≈ 10.7 mM) | solubility (purified water containing mixtures of solubilizers, 25 °C, aqueous with cosolvent or surfactant or cyclodextrin, 10% glycofurol, 40% PEG 400, 25° C., read-out: Solubility): 6120 µg/mL (≈ 21 mM) | solubility (purified water, 25 °C, water, Purified Water, 25° C., read-out: Solubility): 182 µg/mL (≈ 0.623 mM) | solubility (water without solubilizer, 25 °C, water, water, no solubilizer, summary of Table 1, read-out: Solubility in water without any solubilizer): ≤ 200 µg/mL
